For one data set, the system named is RSV A2. Description: Cytopathic effect (CPE) assay, RSV A2 on Hep-2 cells. It is filed as cell-based, Respiratory syncytial virus. The note with it: CPE assay on Hep-2 cells, MOI 0.02, 5 days. As for the experimental part: FIG. 1: Effect of H-RRKKcwwftfiac-OH (PSP VI A1) against RSV A2 in vitro. The ability of the peptide to inhibit the replication of RSV A2 was determined by CPE assay on Hep-2 cells. Experiments were done in triplicates and carried out in the presence of DMSO or increasing concentration of test compound.
(§1) Cytopathic effect (CPE) assay for HSV, RSV and CMV: Appropriate cells were seeded into 96 well plates and incubated overnight until they reached ˜70% confluency. Viruses were treated with various concentrations of peptide or vehicle for 90 minutes at 4° C. and added on to the confluent monolayer of cells for the rest of the assay. At the end of the incubation period, the viability of the cells was determined by adding MTT reagent and incubating the plates at 37° C. for 2-4 hours at 5% CO2. After the incubation, 100% isopropanol was added to solubilise the formazan crystals and the absorbance was recorded at 540 nm subtracting the background at 620 nm.
(§2) Pauwels formula (shown below) was used to calculate the percent cell protection achieved by the positive control or test compounds.
(§3) Percent cell protection=([ODt]virus−[ODc]virus/[ODc]mock−[ODc]virus)×100
(§4) These percentages were used to determine the ECso which were calculated by non-linear regression analysis with IDBS XLFit Excel Add-in Version 5.4.0.8
(Damage to the host cells serves as the signal in cytopathic effect assays.)

The next data set deals with CMV AD169. Description: Cytopathic effect (CPE) assay, CMV AD169 on HFFF-2 cells. The format is cell-based, Cytomegalovirus. The note with it: CPE assay on HFFF-2 cells, MOI 0.006, 14 days. As for the experimental part: FIG. 5: Effect of PSP VI A1 against CMV in vitro. The ability of the peptide to inhibit the replication of CMV was determined by CPE assay on HFFF-2 cells. Experiments were done in triplicates and carried out in the presence of DMSO or increasing concentration of test compound.
as §1, §2, §3, §4

In another data set the test system is HSV-2. Description: Cytopathic effect (CPE) assay, HSV-2 on Vero cells. The format is cell-based, Herpes Simplex Virus. The note with it: MOI 0.02, 4 days. As for the experimental part: FIG. 3: Effect of PSP VI A1 against HSV-2 in vitro. The ability of the peptide to inhibit the replication of HSV was determined by CPE assay on Vero cells. Experiments were done in triplicates and carried out in the presence of DMSO or increasing concentration of test compound.
as §1, §2, §3, §4

The next data set deals with HIV-1 92UG029. It is filed as cell-based, Human Immunodeficiency Virus. As for the experimental part: FIG. 7: Effect of PSP VI A1 against HIV-1 92UG029 in vitro. The ability of the peptide to inhibit the replication of HIV was determined by reverse transcriptase assay on PBMCs. Experiments were carried out in the presence of DMSO or increasing concentration of peptide. Results are presented as mean value of triplicate measurements.
Anti-HIV Efficacy Evaluation in Fresh Human PBMCs: PBMCs were infected with various concentrations of peptide treated viruses and incubated at 37° C., 5% CO2 for seven days. After this incubation, the cells were centrifuged down and the supernatants were collected for reverse transcriptase activity (RT) assay. The cytotoxic effects of the compounds were studied with the addition of MTS to the cells following the removal of the supernatant. Data analysis for IC50 and TC50 was done by the CRO with their in house computer program.
Reverse transcriptase activity assay: Reverse transcriptase (RT) assay was carried out in a microtiter plate. Briefly Tritiated thymidine triphosphate (3H-TTP, 80 Ci/mmol, NEN;(GE Healthcare) was prepared as a stock solution by combining 150 μL poly rA (20 mg/mL) with 0.5 mL oligo dT (20 units/mL) and 5.35 mL sterile dH2O. Fresh RT reaction buffer was prepared with 125 μL 1.0 M EGTA, 125 μL dH2O, 125 μL 20% Triton X100, 50 μL 1.0 M Tris (pH 7.4), 50 μL 1.0 M DTT, and 40 μL 1.0 M MgCl2. The final reaction mixture was obtained by mixing 1 part of 3H-TTP, 4 parts dH2O, 2.5 parts poly rA:oligo dT stock and 2.5 parts reaction buffer. Ten microliters of this reaction mixture was added to the microtiter plate and 15 μL of virus containing supernatant is added and mixed. Then the plate was incubated at 37° C. for 60 minutes. After the incubation, the reaction volume was spotted onto DE81 filter-mats (Wallac), washed extensively with 5% sodium phosphate buffer or 2× SSC (Life Technologies), then in distilled water which was followed by 70% ethanol wash and air drying. Standard liquid scintillation techniques were used to quantify the incorporated radioactivity (counts per minute, CPM).

A short description of data set [1]: Cytotoxicity Assay 2 (CellTiter 96 AQueous One) on MDCK cells. It is filed as cell-based. The note with it: dog, 0.1-100 μM, no significant toxicity, read-out: CE50 (Cytotoxic Effect 50). As for the experimental part:
(§5) Cytotoxicity Assay 2: MDCK cells or A549 cells (˜5000 cells/well) are grown overnight on 96 well plates. The media is replaced by serially diluted peptides and incubated again for 24/48 h. The culture medium is removed and 20 μl of CellTiter 96® AQueous One Solution […] (Promega, Wis., USA) is added and incubated at 37° C. for 2 h. The optical density is measured at 490 nm in an microplate reader (iMARK, BioRad, USA).
(§6) Cytotoxic effects of anti-viral peptides on MDCK cells or A549 cells: The cytotoxic effects of anti-viral peptides are shown in FIG. 12 and FIG. 13 which are assessed as explained in Example 1. Briefly, the MDCK cells/A549 cells are treated with either 0 μM peptide (Mock) or increasing concentrations (i.e., 0.1 μM, 0.3 μM, 1 μM, 3 μM, 10 μM, 30 μM and 100 μM) of PSP V A19 and PSP VI A1 and the cell death is determined by 48 hours post infection by a cytotoxicity assay with CellTiter 96® AQueous One Solution cell proliferation assay kit (Promega, USA) as explained by manufacturer. The results are normalized to the mock treated cells.

The nature of data set [2]: Cytotoxicity Assay 2 (CellTiter 96 AQueous One) on A549 cells. The settings on record: human, 0.1-100 μM, no significant toxicity, read-out: CE50 (Cytotoxic Effect 50). The format is cell-based. As for the experimental part: as §5, §6

The source of these data is patent US11376306B2, “Peptides and uses therefor as antiviral agents” (priority 2017, dated 2022).

The structures appear in SMILES notation. Positions of bridges follow the written chain, without caps; N, C: chain ends. Non-standard residues stand in square brackets, D forms with d. Residues, ends and D or L forms follow the SMILES beside them.

The term EC50 denotes the midpoint of the concentration-response curve. Turning to `CC[C@@H](C)[C@H]1NC(=O)[C@@H](Cc2ccccc2)NC(=O)[C@@H]([C@H](C)O)NC(=O)[C@@H](Cc2ccccc2)NC(=O)[C@@H](Cc2c[nH]c3ccccc23)NC(=O)[C@@H]([C@H](C)O)NC(=O)[C@H](NC(=O)[C@H](CCCCN)NC(=O)[C@H](CCCCN)NC(=O)[C@H](CCCNC(=N)N)NC(=O)[C@@H](N)CCCNC(=N)N)CSSC[C@H](C(=O)O)NC(=O)[C@@H](CC(N)=O)NC1=O` [PSP IV A17, H-RRKKctwftfinc-OH] (H-RRKK[dC][dT][dW][dF][dT][dF][dI][dN][dC]-OH; disulfide 5-13), the EC50 in the data set with RSV A2 is 12.6 µM; with CMV AD169 it was 18.9 µM; in the data set on HSV-2 it was about 30 µM.
By IC50 is commonly meant the midpoint of a concentration-inhibition curve. Higher therefore signals weaker potency. The compound `CC[C@@H](C)[C@@H](NC(=O)[C@@H](Cc1ccccc1)NC(=O)[C@H](NC(=O)[C@@H](Cc1ccccc1)NC(=O)[C@@H](Cc1c[nH]c2ccccc12)NC(=O)[C@H](NC(=O)[C@H](CCCCN)NC(=O)[C@H](CCCCN)NC(=O)[C@H](CCCNC(=N)N)NC(=O)[C@@H](N)CCCNC(=N)N)[C@H](C)O)[C@H](C)O)C(=O)N[C@H](CC(N)=O)C(=O)O` [PSP IV A17-LS, H-RRKKtwftfin-OH] (H-RRKK[dT][dW][dF][dT][dF][dI][dN]-OH) had an IC50 with HIV-1 92UG029 of 79.1 µM.
`CC[C@@H](C)[C@H]1NC(=O)[C@@H](Cc2ccccc2)NC(=O)[C@@H]([C@H](C)O)NC(=O)[C@@H](Cc2ccccc2)NC(=O)[C@@H](Cc2c[nH]c3ccccc23)NC(=O)[C@@H](Cc2c[nH]c3ccccc23)NC(=O)[C@H](NC(=O)[C@H](CCCCN)NC(=O)[C@H](CCCCN)NC(=O)[C@H](CCCNC(=N)N)NC(=O)[C@@H](N)CCCNC(=N)N)CSSC[C@H](C(=O)O)NC(=O)[C@@H](CC(N)=O)NC1=O` [PSP V A19, H-RRKKcwwftfinc-OH] (H-RRKK[dC][dW][dW][dF][dT][dF][dI][dN][dC]-OH; disulfide 5-13): the CC50 at 48 h in data set [1] and in data set [2] was over 30 µM throughout.
Take `CC[C@@H](C)[C@H]1NC(=O)[C@@H](Cc2ccccc2)NC(=O)[C@@H]([C@H](C)O)NC(=O)[C@@H](Cc2ccccc2)NC(=O)[C@@H](Cc2c[nH]c3ccccc23)NC(=O)[C@@H](Cc2c[nH]c3ccccc23)NC(=O)[C@H](N)CSSC[C@H](C(=O)O)NC(=O)[C@@H](CC(N)=O)NC1=O` [PSP V A19-C, H-cwwftfinc-OH] (H-[dC][dW][dW][dF][dT][dF][dI][dN][dC]-OH; disulfide 1-9): the half-maximal inhibitory concentration (IC50) in the data set with HIV-1 92UG029 turned out to be 66.5 µM.
For the compound `CC[C@@H](C)[C@H]1NC(=O)[C@@H](Cc2ccccc2)NC(=O)[C@@H]([C@H](C)O)NC(=O)[C@@H](Cc2ccccc2)NC(=O)[C@@H](Cc2c[nH]c3ccccc23)NC(=O)[C@@H](Cc2c[nH]c3ccccc23)NC(=O)[C@H](NC(=O)[C@H](CCCCN)NC(=O)[C@H](CCCCN)NC(=O)[C@H](CCCNC(=N)N)NC(=O)[C@@H](N)CCCNC(=N)N)CSSC[C@H](C(=O)O)NC(=O)[C@@H](C)NC1=O` [PSP VI A1, H-RRKKcwwftfiac-OH] (H-RRKK[dC][dW][dW][dF][dT][dF][dI][dA][dC]-OH; disulfide 5-13), the EC50 was 17.8 µM with RSV A2, 13.8 µM in the data set with CMV AD169 and about 30 µM with HSV-2. Besides, the IC50 with HIV-1 92UG029 came to 60.8 µM. For the same compound, the CC50 at 48 h in data set [1] and in data set [2] was over 30 µM throughout.
